From patent publication US20230277503A1, “COMPOSITIONS AND METHODS TO REDUCE PATHOGENESIS” (priority 2017, published 2023)
Entries after “also recorded” stand apart in the source; their conditions may differ. Like-named read-outs stand apart in the source and are kept apart here. Marks after values point to notes of the source that are not given here.

Columns and labels:
HSV-1 RE = assay: Murine model of HSV-1 (RE) chronic herpetic keratitis; format: in vivo, BALB/c mice; conditions: for signs of disease, including stromal opacity and corneal neovascularization: acute herpetic keratitis stage; for weight loss associated with HSV-1 ocular infection: day 5 to 11 post infection; for ocular histology (H&E, central cornea): day 15 post infection; for # Deceased / # Eyes showing signs of disease / Clinically clear eyes: day 15 post-infection, topical drops 4x per day for 8 days, (R)-DOI 500 μM; for stromal opacity score: following day 8 post infection; for clinical scores (slit lamp score, corneal opacity, neovascularization): up to 15 DPI, versus control BSS
Description: (§1) 16 BALB/c mice, which can respond with a TH2 biased immune response, were randomly sorted into 3 treatment arms: 1) Ophthalmic Balanced Saline Solution diluted 1:1 in PBS (BSS+PBS) treated (6 mice); 2) DOI treated (XTPFDOI) (5 mice); 3) 1.0% TFT (TFT+PBS) (5 mice). Animals were anesthetized with […]:ketamine and both eyes were scarified in a cross hatch pattern using a curved needle. Immediately following ocular scarification, eyes were inoculated with a 3 microliter drop containing 10,000 plaque forming units (PFU) of Herpes Simplex Virus type 1 (HSV-1) RE strain. The next morning following infection animals were treated with the respective treatment as assigned within their treatment arm. Treatments were applied topically to the eye in a 4 microliter drop. Drops were applied 4× daily from 9 am to 5:30 pm starting immediately following clinical scoring. Treatments were applied for the first 8 days post infection and then stopped on day 8. Clinical scoring was done using a slit lamp biomicroscope magnified at 16× on the days indicated by a single individual masked to the drug treatment parameters. Slit lamp biomicroscopy also included fluorescein exclusion labeling of the corneal surface following scoring of all clinical parameters. Each eye was scored independently. Clinically clear eyes were scored as such if no apparent signs of disease were present in any clinical parameter during the chronic phase.
At day 15 post infection, a stage that will be during chronic immune-associated disease with no virus present, animals were euthanized and the eyes were removed for histology. Random representative eyes were prepared by taking sections through the central cornea and processed by H&E histology for visualization. Sections were examined microscopically and photographed across the central cornea.
BALB/c eyes were scarified and infected with HSV-1 (RE), an HSV-1 strain that causes herpetic keratitis in 100% of ocular infections^31. Starting 24 hours post-infection, topical drops were applied in a masked fashion 4× per day for 8 days. Individual clinical parameters were monitored and scored in a masked fashion for 15 days.
BALB/c eyes were scarified and infected with 10,000 PFU per eye of HSV-1 RE, an HSV-1 strain that causes herpetic keratitis in 100% of ocular infections.
Referring to FIGS. 37-42, for example, individual clinical parameters were monitored and scored in a masked fashion for 15 days post infection. Parameters included weight, death, epiphora, blepharitis, corneal epithelium, corneal neovascularization, stromal opacity, scleral inflammation and fluorescently visualized slitlamp biomicroscopy.
24 hours post infection, topical drops were applied in a masked fashion 4× per day at 4 ul per drop to the surface of the eye. Topical drops consisted of 1% Trifluorthymidine (1% TFT; Viroptic), Ophthalmic Balanced Salt Solution (BSS), or (R)-DOI in Ophthalmic BSS.
as §1, with “preferentially” for “can”, “(BSS)” for “diluted 1:1 in PBS (BSS+PBS)”, “((R)-DOI)” for “(XTPFDOI)”, “TFT” for “TFT (TFT+PBS)”, “Slit lamp biomicroscopy also included fluorescein exclusion labeling of the corneal surface following scoring of all clinical parameters. Each eye was scored independently. Clinically clear eyes were scored as such if no apparent signs of disease were present in any clinical parameter during the chronic phase.” left out

[1] = system: human microvascular endothelial cells (HMEC); assay: HMEC spheroid vascular-like tubule outgrowth; format: cell-based; conditions: matrigel with VEGF; serotonin 50 nM, R-DOI 100 nM, TCB2 500 nM
Experimental: HMEC cells were cultured in specially coated U-shaped bottom 96 well plates in order to form tissue-like 3 dimension spheroids. Spheroids were subsequently implanted into wells that contained matrigel basement membranes supplemented with vascular endothelial growth factor (VEGF) or starved (Starvation control-no VEGF). Culture media was treated with either serotonin (50 nM), (R-DOI (100 nM) or TCB2 (500 nM) outgrowth from the spheroids of vascular-like structures was monitored microscopically.

[2] = system: VEGF-mediated neovascularization from aortic rings; assay: Aortic ring neovascularization assay; format: cell-based, mice; conditions: for blood vessel sprouting, branching and formation from aortic rings: VEGF-containing endothelial growth medium, matrigel
Experimental: Referring to FIG. 34 for example, the aortas from sacrificed mice are removed, cleaned, and dissected into 1 mm tubule sections. These aortic rings are implanted into matrigel basement membrane and incubated in endothelial cell growth medium containing vascular endothelial growth factor. Aortic rings are continuously incubated in the presence of 5HT2A receptor agonists and antagonists at the indicated concentrations and examined by microscopy daily. Extensive sprouting, branching and networking of new blood vessels can be observed in control aortic rings, where multiple images needed to be stitched together in order to capture the extensive blood vessel network formed.

[3] = system: human microvascular endothelial cells; assay: Endothelial tubule formation assay; format: cell-based; conditions: geltrex basement membrane
Experimental: Referring to FIG. 35 for example, to assess the ability of 5-HT2A agonists and antagonists to inhibit capillary-like endothelial tube formation, human microvascular endothelial cells were seeded into geltrex basement membrane and overlaid with endothelial growth medium containing vascular endothelial growth factor (VEGF) and the indicated drugs. Both 5HT2A agonists and antagonists disrupted formation of endothelial tube networks, the formation of branching, complex capillary structures, and interconnectivity of capillary tubes.

[4] = system: TNFα-induced inflammatory gene and protein expression; conditions: intraperitoneal, doses up to 30-fold below the CNS behaviorally-active threshold dose; aorta and intestine; cited from earlier work
HSV-1 = format: cell-based, mice; conditions: 500 nM; for HSV-1 reactivation and amount of infectious virus shed from latent neurons (PFU/ml/TG): relative to mock/buffer control, 10 days
asthma in a rat model = assay: Rat model of asthma (OVA); format: in vivo; conditions: OVA (ovalbumin) allergen
Description: OVA is ovalbumin, a frequently used allergen that induces robust, allergic pulmonary inflammation in laboratory rodents.

O=c1[nH]c(=O)n([C@H]2C[C@H](O)[C@@H](CO)O2)cc1C(F)(F)F [1% TFT, trifluorothymidine, reference compound]
signs of disease, including stromal opacity and corneal neovascularization (HSV-1 RE): reduced signs of disease
weight loss associated with HSV-1 ocular infection (HSV-1 RE): experienced weight loss associated with HSV-1 ocular infections
ocular histology (H&E, central cornea) (HSV-1 RE; listed as TFT): immune cell infiltration, thickening of the stroma, neovascularization, and disruption of the corneal epithelial layers
# Deceased (HSV-1 RE): 0/5
# Eyes showing signs of disease (HSV-1 RE): 7/10
Clinically clear eyes (HSV-1 RE): 0/10
stromal opacity score (HSV-1 RE): markedly increased opacity score
clinical scores (slit lamp score, corneal opacity, neovascularization) (HSV-1 RE): initially controlled ocular disease development relative to control BSS treated eyes

COc1cc(CCN)c(OC)cc1I [2CI, 2-(4-Iodo-2,5-dimethoxyphenyl)ethan-1-amine]
vascular-like tubular growth from HMEC spheroids [1]: abrogated formation of vascular-like tubular growth

O=C(c1ccc(F)cc1)C1CCN(CCCCc2ccccc2)CC1 [4F4PP, reference compound]
blood vessel sprouting, branching and formation from aortic rings [2]: inhibit VEGF-mediated neovascularization from aortic rings
VEGF-mediated human vascular endothelium tubule formation [3]: inhibit VEGF-mediated human vascular endothelium tubule formation

COc1cc(C[C@@H](C)N)c(OC)cc1I [(R)-DOI, (R)-1-(2,5-dimethoxy-4-iodophenyl)-2-aminopropane]
TNFα-induced inflammatory gene and protein expression [4]: potently inhibits TNFα-induced inflammatory gene and protein expression
blood vessel sprouting, branching and formation from aortic rings [2]: inhibit VEGF-mediated neovascularization from aortic rings; also recorded: inhibited blood vessel sprouting, branching and formation
concentration at which the inhibitory effects began to no longer be as effective ([2]; neovascularization, sprouting, branching, networking): 10 nM
delay in reactivation of HSV-1 from TGs (HSV-1; relative to mock): 2 fold
HSV-1 reactivation and amount of infectious virus shed from latent neurons (PFU/ml/TG) (HSV-1): inhibits HSV-1 reactivation from latent neurons; also recorded: significantly inhibited the number of reactivating TGs and the amount of infectious virus shed from neurons
HSV-1 reactivation and amount of infectious virus shed from latent neurons (PFU/ml/TG) (HSV-1; listed as DOI): significantly inhibited the degree of reactivation and amount of infectious virus shed from latent neurons
vascular-like tubular growth from HMEC spheroids [1]: abrogated formation of vascular-like tubular growth
VEGF-mediated human vascular endothelium tubule formation [3]: inhibit VEGF-mediated human vascular endothelium tubule formation
signs of disease, including stromal opacity and corneal neovascularization (HSV-1 RE): reduced signs of disease
disease relative to control BSS treatment (HSV-1 RE; after day 8, chronic immuno-pathology): significantly reduced disease relative to control BSS treatment
eyes exhibiting complete clinical resolution (HSV-1 RE; by day 15, drops topically applied for 7 days post infection): 60%
corneal neovascularization (HSV-1 RE; compared to control BSS or TFT treated eyes): decreased development of corneal neovascularization
weight loss associated with HSV-1 ocular infection (HSV-1 RE): do not experience significant weight loss
ocular histology (H&E, central cornea) (HSV-1 RE): markedly less disease presentation in all eyes examined; also recorded: most similar to uninfected eyes
ocular histology (H&E, central cornea) (HSV-1 RE; listed as DOI): normal ocular morphology with an absence of clinical signs of ocular disease
# Deceased (HSV-1 RE): 0/5
# Eyes showing signs of disease (HSV-1 RE): 3/10*
Clinically clear eyes (HSV-1 RE): 6/10
stromal opacity score (HSV-1 RE): increase in stromal opacity was muted
clinical scores (slit lamp score, corneal opacity, neovascularization) (HSV-1 RE): reduced slit lamp scores, corneal opacity and neovascularization
clinical scores (slit lamp score, corneal opacity, neovascularization) (HSV-1 RE; listed as DOI): suppressed development of all clinically scored parameters

CCN(CC)C(=O)[C@@H]1C=C2c3cccc4[nH]cc(c34)C[C@H]2N(C)C1 [LSD]
symptoms of asthma (asthma in a rat model): can prevent symptoms of asthma

NCCc1c[nH]c2ccc(O)cc12 [serotonin, 5-hydroxytryptamine]
vascular-like tubular growth from HMEC spheroids [1]: induces vascularization-like replication and tubule growth
